These results are taken from US20190336494A1, “[…] COMPOUNDS FOR TREATING AGITATION” (Concert Pharmaceuticals, Inc., priority 2015, published 2019).

Data set [1] can be described thus: Metabolic stability of test compounds using human liver microsomes. The class given is in vitro ADME. Particulars: for half-life at 1 µM: human, pH 7.4, 1.0 mg/mL HLM, 1 μM test compound, 2 mM NADPH, 37° C., 0-30 minutes, read-out: Ave. t1/2 (n = 2), calculated half-life in human liver microsomes; for Change over non-deuterated compound (t1/2): vs Dimemorfan. As to the method:
Example 4. Determination of Metabolic Stability of Test Compounds using Human Liver Microsomes. Human liver microsomes (20 mg/mL) were obtained from Xenotech, LLC (Lenexa, Kans.). β-nicotinamide adenine dinucleotide phosphate, reduced form (NADPH), magnesium chloride (MgCl2), and dimethyl sulfoxide (DMSO) were purchased from Sigma-Aldrich.
7.5 mM stock solutions of test compounds were prepared in DMSO. The 7.5 mM stock solutions were diluted to 50 μM in acetonitrile (ACN). The 20 mg/mL human liver microsomes were diluted to 1.25 mg/mL (1 mg/mL final) in 0.1 M potassium phosphate buffer, pH 7.4, containing 3 mM MgCl2. The diluted microsomes (375 μL) were added to wells of a 96-well polypropylene plate in triplicate. 10 μL of the 50 μM test compound was added to the microsomes and the mixture was pre-warmed for 10 minutes. Reactions were initiated by addition of 125 μL of pre-warmed NADPH solution. The final reaction volume was 0.5 mL and contained 1.0 mg/mL human liver microsomes, 1 μM test compound, and 2 mM NADPH in 0.1 M potassium phosphate buffer, pH 7.4, and 3 mM MgCl2. The reaction mixtures were incubated at 37° C., and 50 μL aliquots were removed at 0, 5, 10, 20, and 30 minutes and added to shallow 96-well plates which contained 50 μL of ice-cold ACN with internal standard to stop the reactions. The plates were stored at 4° C. for 20 minutes after which 100 μL of water was added to the wells of the plate before centrifugation to pellet precipitated proteins. Supernatants were transferred to another 96-well plate and analyzed for amounts of parent remaining by LC-MS/MS using an Applied Bio-systems API 4000 mass spectrometer.
7-ethoxy coumarin was used as a positive control.
The in vitro t1/2s for test compounds were calculated from the slopes of the linear regression of % parent remaining (In) vs incubation time relationship:
in vitro t 1/2=0.693/k, where k=-[slope of linear regression of % parent remaining(In) vs incubation time]
(§1) Data analysis was performed using Microsoft Excel Software.

The nature of data set [2]: Effect of quinidine on metabolic stability in extensive metabolizer human liver microsomes. In kind it is in vitro ADME. The conditions noted are these: EM HLM. How it is done:
Materials: Individual donor with extensive metabolizer human liver microsomes (EM HLM, 20 mg/mL) with CYP2D6 activity of 957±19 pmol/mg protein/min, genotyped for CYP2D6 allelic variant-CYP2D6*1/*2x2, were obtained from Xenotech, LLC (Lenexa, Kans.). β-nicotinamide adenine dinucleotide phosphate, reduced form (NADPH), magnesium chloride (MgCl2), dimethyl sulfoxide (DMSO), acetonitrile (ACN), quinidine, and dextromethorphan (DM) were purchased from Sigma-Aldrich. Dimemorfan and d6-dimemorfan (Compound 100) were synthesized by Adesis, Inc.
Determination of Metabolic Stability: 1.0 mg/mL stock solutions of test compounds dextromethorphan, dimemorfan, and d6-dimemorfan (Compound 100) were prepared in DMSO. The 1.0 mg/mL stock solutions were diluted to 10,000 ng/mL in acetonitrile (ACN). A 10 mM stock solution of quinidine was prepared in acetonitrile, which was then diluted further in acetonitrile to produce 20 μM, 10 μM, 5 μM, 2.5 μM, and 1.25 μM solutions of quinidine. The human liver microsomes were diluted to 1.25 mg/mL in 0.1 M potassium phosphate buffer, pH 7.4, containing 3 mM MgC12. The diluted microsomes were added to wells of a 96-well deep-well polypropylene plate in triplicate. A 5 μL aliquot of each 10,000 ng/mL test compound was added to the microsomes, and the mixture was pre-warmed at 37° C. for 7 minutes, then a 5 μL aliquot of each quinidine solution was added (except in control wells where no quinidine was added). Reactions were initiated by addition of pre-warmed NADPH solution to the mixture. The final reaction volume was 0.5 mL and contained 1.0 mg/mL human liver microsomes, 100 ng/mL of test compound, 0.2, 0.1, 0.05, 0.025, 0.0125, or 0 μM of quinidine, and 2 mM NADPH in 0.1 M potassium phosphate buffer, pH 7.4, and 3 mM MgCl2. The reaction mixtures were incubated at 37° C., and 50 μL aliquots were removed at 0, 15, 30, and 60 minutes and added to shallow-well 96-well plates which contained 50 μL of ice-cold ACN with internal standard to stop the reactions. The plates were stored at 4° C. for 20 minutes after which 100 μL of water was added to the wells of the plate before centrifugation to pellet precipitated proteins. Supernatants were transferred to another 96-well plate and analyzed for amounts of parent remaining by LC-MS/MS using an Applied Bio-systems mass spectrometer. Amount of parent remaining was quantified via standard curve.
The in vitro t1/2's for test compounds were calculated from the slopes of the linear regression of % parent remaining (In) vs. incubation time relationship. • in vitro t1/2=0.693/k • k=-[slope of linear regression of % parent remaining(In) vs incubation time]
The apparent intrinsic clearance was calculated using the following equation:
CLint (mL/min/kg)=(0.693/in vitro t1/2) (Incubation Volume/mg of microsomes)
(45 mg microsomes/gram of liver) (20 gm of liver/kg b.w.)
as §1

For the compound `[2H]C([2H])([2H])c1ccc2c(c1)[C@]13CCCC[C@@H]1[C@H](C2)N(C([2H])([2H])[2H])CC3` [Compound 100, (+)-3-(Methyl-d3)-17-(methyl-d3)-(9α, 13α, 14α)-morphinan], the half-life at 1 µM in data set [1] was 31.6 min. Also, the “Change over non-deuterated compound (t1/2)” value in data set [1] is on record as 37%. Besides, the “% Δ (D6-Dimemorfan/Dimemorfan), deuterium effect on half-life” value in data set [2] (Quinidine 0 μM) is 35%; in data set [2] (Quinidine 0.0125 μM), 59%; in data set [2] (Quinidine 0.025 μM), 3%; in data set [2] (Quinidine 0.05 μM), 11%; in data set [2] (Quinidine 0.1 μM) it was 22%; in data set [2] (Quinidine 0.2 μM) it was −12%. For the same compound, the “Ratio (D6-Dimemorfan/Dimemorfan) of Clint, app” value in data set [2] (Quinidine 0 μM) came out at 0.74; in data set [2] (Quinidine 0.0125 μM) it was 0.61; in data set [2] (Quinidine 0.025 μM) it was 0.96; in data set [2] (Quinidine 0.05 μM) it was 0.90; in data set [2] (Quinidine 0.1 μM), 0.82; in data set [2] (Quinidine 0.2 μM) it was 1.11.

Regarding `[2H]C([2H])([2H])c1ccc2c(c1)[C@]13CCCC[C@@H]1[C@H](C2)N(C)CC3` [Compound 102, (+)-3-(Methyl-d3)-17-methyl-(9α, 13α, 14α)-morphinan], in data set [1], the half-life at 1 µM is 28 min and the “Change over non-deuterated compound (t1/2)” value was determined as 21%.

With `Cc1ccc2c(c1)[C@]13CCCC[C@@H]1[C@H](C2)N(C)CC3` [Dimemorfan, (+)-(9α, 13α, 14α)-3,17-dimethylmorphinan, reference compound], in data set [1], the half-life at 1 µM was 23.1 min.
